Laboratory results from patent US20140135310A1, “SULPHONAMIDE DERIVATIVES OF ALICYCLIC AMINES FOR THE TREATMENT OF CENTRAL NERVOUS SYSTEM DISEASES” (Adamed Sp. z o.o., priority 2011, published 2014).

Assays:
[1] = molecular target: dopaminergic receptors D2 (Homo sapiens, UniProt P14416); experiment: Radioligand binding assay, dopaminergic D2 receptors; settings: binding assay, test compound 1×10^−6 M
Summary of the method: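 Competition binding with scintillation counting of bound radioligand; specific binding taken as total minus non-specific binding measured with excess unlabelled ligand. IC50 obtained by Hill-equation non-linear regression of replicate-mean curves, then converted to Ki via Cheng–Prusoff using radioligand concentration and Scatchard-derived KD.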

[2] = molecular target: T1, 5-HT2A receptor (Homo sapiens, UniProt P28223); experiment: Radioligand binding assay, serotoninergic 5-HT2A receptors; settings: binding assay result in %, Table 5a
T1 construct: purchased PerkinElmer
T1 sequence (P28223 whole entry): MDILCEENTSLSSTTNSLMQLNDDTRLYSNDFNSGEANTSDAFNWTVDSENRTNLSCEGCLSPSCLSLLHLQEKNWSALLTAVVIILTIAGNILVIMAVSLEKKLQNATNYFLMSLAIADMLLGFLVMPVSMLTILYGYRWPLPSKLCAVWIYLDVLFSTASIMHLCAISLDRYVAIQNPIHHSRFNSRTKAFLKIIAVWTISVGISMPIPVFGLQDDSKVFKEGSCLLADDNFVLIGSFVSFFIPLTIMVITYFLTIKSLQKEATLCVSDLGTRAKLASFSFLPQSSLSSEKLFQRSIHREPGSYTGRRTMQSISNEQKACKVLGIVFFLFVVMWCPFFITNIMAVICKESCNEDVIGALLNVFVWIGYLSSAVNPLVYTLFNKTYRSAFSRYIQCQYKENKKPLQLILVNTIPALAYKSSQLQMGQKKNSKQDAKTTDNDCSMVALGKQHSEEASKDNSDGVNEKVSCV
Summary of the method: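 Radioligand competition binding with scintillation counting; nonspecific binding defined by excess unlabelled ligand. Data as percent inhibition of control specific binding. IC50 by Hill-equation fit of competition curves; Ki by Cheng-Prusoff, with radioligand Kd from Scatchard plot.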

[3] = molecular target: T2, 5-HT1A receptor (rat hippocampus) (Rattus norvegicus, UniProt P19327); experiment: Radioligand binding assay, serotoninergic 5-HT1A receptors; settings: binding assay result in %, Table 5a;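 further: test compound at 1 µM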
T2 construct: hippocampus; from tissue; host or cells: rat hippocampus
T2 sequence (P19327 1-422): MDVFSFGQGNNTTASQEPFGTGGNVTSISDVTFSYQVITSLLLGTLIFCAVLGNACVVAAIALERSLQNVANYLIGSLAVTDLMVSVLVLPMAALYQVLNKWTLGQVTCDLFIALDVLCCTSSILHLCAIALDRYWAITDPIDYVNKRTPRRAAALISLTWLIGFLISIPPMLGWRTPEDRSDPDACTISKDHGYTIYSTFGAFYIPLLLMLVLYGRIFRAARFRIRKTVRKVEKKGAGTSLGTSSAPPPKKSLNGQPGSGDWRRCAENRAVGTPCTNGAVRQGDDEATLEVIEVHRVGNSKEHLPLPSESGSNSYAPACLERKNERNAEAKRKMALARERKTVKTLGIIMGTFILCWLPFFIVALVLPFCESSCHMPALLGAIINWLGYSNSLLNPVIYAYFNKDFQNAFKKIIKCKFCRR

[4] = molecular target: T3, 5-HT7 receptor (Homo sapiens, UniProt P34969); experiment: Radioligand binding assay, serotoninergic 5-HT7 receptors; settings: binding assay result in %, Table 5a;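 further: test compound at 1 µM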
T3 construct: purchased PerkinElmer
T3 sequence (P34969 whole entry): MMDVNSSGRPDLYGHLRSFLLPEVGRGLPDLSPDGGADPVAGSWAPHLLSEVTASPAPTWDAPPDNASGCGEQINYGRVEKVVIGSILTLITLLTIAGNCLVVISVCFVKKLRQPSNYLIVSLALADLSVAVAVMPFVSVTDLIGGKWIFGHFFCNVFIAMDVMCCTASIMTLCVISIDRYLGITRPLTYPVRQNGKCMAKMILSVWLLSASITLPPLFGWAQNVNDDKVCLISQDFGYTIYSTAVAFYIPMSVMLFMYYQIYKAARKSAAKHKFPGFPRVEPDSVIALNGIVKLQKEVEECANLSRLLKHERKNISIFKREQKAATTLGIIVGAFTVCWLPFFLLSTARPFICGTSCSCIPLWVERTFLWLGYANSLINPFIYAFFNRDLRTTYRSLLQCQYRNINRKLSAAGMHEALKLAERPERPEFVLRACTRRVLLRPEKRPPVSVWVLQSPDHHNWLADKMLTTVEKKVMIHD
Summary of the method: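 Competition binding at human 5-HT7 receptors with a radioligand, detected by scintillation counting; non-specific binding was defined with excess unlabelled ligand. IC50 came from Hill-equation fits of competition curves, and Ki from Cheng–Prusoff using radioligand concentration and Scatchard-derived KD.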

[5] = test system: α1 adrenergic receptors (rat cerebral cortex); experiment: Radioligand binding assay, adrenergic α1 receptors; settings: test compound 1×10^−6 M
Summary of the method: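 Values derive from radioligand displacement, with non-specific binding defined by excess cold ligand and detection by scintillation. Hill-fit IC50s were converted to Ki via Cheng-Prusoff using Scatchard-derived Kd; percent inhibition of control specific binding also reported.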

[6] = molecular target: dopaminergic receptors D3 (Homo sapiens, UniProt P35462); experiment: Radioligand binding assay, dopaminergic D3 receptors; settings: test compound 1×10^−6 M
Chain of dopaminergic receptors D3 (P35462 whole entry): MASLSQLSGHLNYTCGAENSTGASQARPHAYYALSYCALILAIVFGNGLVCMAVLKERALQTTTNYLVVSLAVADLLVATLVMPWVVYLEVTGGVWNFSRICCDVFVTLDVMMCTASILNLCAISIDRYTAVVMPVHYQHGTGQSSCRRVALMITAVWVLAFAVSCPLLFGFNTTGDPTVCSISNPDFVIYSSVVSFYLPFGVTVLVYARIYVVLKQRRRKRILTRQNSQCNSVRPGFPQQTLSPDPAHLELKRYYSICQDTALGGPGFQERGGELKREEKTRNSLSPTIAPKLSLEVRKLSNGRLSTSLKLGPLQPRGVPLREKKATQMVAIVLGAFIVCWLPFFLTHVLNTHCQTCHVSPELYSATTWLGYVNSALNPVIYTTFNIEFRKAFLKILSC
Summary of the method: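 Competition radioligand binding at human D2, D3 and D4.4 receptors, detected by scintillation counting; nonspecific binding defined with excess unlabelled ligand. Results as percent inhibition of control specific binding; IC50 by Hill-equation nonlinear regression; Ki via Cheng-Prusoff, with radioligand KD from Scatchard plot.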

[7] = molecular target: T4, 5-HT6 receptor (Homo sapiens, UniProt P50406); experiment: Radioligand binding assay, serotoninergic 5-HT6 receptors; settings: binding assay result in %, Table 5a;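 further: test compound at 1 µM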
T4 construct: purchased PerkinElmer
T4 sequence (P50406 whole entry): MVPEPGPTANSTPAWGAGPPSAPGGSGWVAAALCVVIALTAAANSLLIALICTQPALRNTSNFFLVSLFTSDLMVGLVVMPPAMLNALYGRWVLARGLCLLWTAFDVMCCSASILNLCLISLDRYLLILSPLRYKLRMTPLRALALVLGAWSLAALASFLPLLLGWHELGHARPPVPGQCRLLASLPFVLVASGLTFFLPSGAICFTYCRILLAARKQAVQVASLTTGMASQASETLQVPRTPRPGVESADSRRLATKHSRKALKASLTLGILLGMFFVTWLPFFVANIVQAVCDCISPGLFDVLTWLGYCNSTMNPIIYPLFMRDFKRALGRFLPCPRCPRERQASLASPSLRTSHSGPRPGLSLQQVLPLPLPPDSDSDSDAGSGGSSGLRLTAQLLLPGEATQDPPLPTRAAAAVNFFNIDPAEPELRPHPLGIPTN
Summary of the method: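 Values are Ki from Cheng–Prusoff, taking IC50 from Hill nonlinear regression of competition curves and KD from a Scatchard plot. Specific binding was total minus binding with excess unlabelled ligand. Radioligand displacement was detected by scintillation counting, and data were also reported as percent of control specific binding.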

[8] = molecular target: T5, serotonin transporter (SERT) (Homo sapiens, UniProt P31645); experiment: Radioligand binding assay, serotonin transporter (SERT); settings: binding assay, test compound 1×10^−6 M
T5 construct: expressed in transfected cells; host or cells: CHO cells
T5 sequence (P31645 whole entry): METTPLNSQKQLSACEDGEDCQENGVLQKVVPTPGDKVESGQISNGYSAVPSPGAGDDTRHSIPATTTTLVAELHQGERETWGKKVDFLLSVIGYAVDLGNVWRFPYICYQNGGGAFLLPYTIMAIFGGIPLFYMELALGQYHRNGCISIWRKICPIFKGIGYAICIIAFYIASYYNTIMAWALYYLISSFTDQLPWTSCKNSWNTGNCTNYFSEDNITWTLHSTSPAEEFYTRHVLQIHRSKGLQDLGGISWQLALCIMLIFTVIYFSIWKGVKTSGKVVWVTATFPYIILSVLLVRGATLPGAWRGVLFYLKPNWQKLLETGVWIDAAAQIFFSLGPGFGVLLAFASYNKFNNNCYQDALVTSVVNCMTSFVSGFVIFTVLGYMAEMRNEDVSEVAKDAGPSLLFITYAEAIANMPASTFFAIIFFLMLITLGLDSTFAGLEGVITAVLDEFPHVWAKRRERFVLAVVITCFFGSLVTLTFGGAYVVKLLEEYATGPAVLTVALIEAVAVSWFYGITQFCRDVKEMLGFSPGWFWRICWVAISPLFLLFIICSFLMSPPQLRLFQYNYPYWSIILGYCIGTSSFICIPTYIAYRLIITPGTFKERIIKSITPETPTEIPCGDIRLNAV
Summary of the method: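 Radioligand competition binding with scintillation detection; specific binding is total minus binding under excess unlabelled ligand. Reported as % of control specific binding or % inhibition; IC50 from Hill-equation non-linear regression of competition curves, and Ki via Cheng-Prusoff using radioligand concentration and Scatchard-derived KD.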

Chain of dopaminergic receptors D2 (P14416 whole entry): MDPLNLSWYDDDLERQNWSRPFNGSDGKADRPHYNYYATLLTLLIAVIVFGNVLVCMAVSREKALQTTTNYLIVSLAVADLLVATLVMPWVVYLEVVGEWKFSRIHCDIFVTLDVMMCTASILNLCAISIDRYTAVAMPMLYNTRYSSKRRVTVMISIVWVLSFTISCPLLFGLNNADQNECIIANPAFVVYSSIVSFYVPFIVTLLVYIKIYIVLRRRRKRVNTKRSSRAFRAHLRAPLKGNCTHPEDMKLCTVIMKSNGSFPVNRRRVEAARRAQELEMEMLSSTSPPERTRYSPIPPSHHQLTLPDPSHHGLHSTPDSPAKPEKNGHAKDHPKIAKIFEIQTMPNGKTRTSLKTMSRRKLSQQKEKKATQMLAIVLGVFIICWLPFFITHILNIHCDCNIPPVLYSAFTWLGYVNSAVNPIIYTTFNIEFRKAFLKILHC

Row | SMILES | inhibition at 1 µM [1] | inhibition at 1 µM [2] | inhibition at 1 µM [3] | inhibition at 1 µM [4] | α1 [%] [5] | inhibition at 1 µM [6] | inhibition at 1 µM [7] | inhibition at 1 µM [8] | D2 [%] [1] | 5-HT2A [%] [2] | 5-HT1A [%] [3] | 5-HT7 [%] [4] | D3 [%] [6] | 5-HT6 [%] [7] | SERT [%] [8]
1 | O=S(=O)(NCC1CCN(CCOc2cccc3ccccc23)C1)c1csc2ccccc12 (stereo not drawn) [Compound 276, N-[[1-[2-(1-Naphthyloxy)ethyl]pyrrolidin-3-yl]methyl]benzothiophene-3-sulphonamide] | 41% | 92% | 81% | 82% | 16% | 91% | 84% | 84% |  |  |  |  |  |  | 
2 | O=S(=O)(NCC1CN(CCOc2cccc3c2OCCO3)C1)c1ccc(-c2ccccc2)cc1 [Compound 178, N-[[1-[2-(2,3-Dihydro-1,4-benzodioxin-5-yloxy)ethyl]azetidin-3-yl]methyl]-4-phenyl-benzenesulphonamide] | 8% | 73% | 96% | 89% | 20% | 25% | 21% | -6% |  |  |  |  |  |  | 
3 | Cn1ccc2c(S(=O)(=O)NCC3CN(CCOc4cccc5ccccc45)C3)cccc21 [Compound 170, 1-Methyl-N-[[1-[2-(1-naphthyloxy)ethyl]azetidin-3-yl]methyl]indole-4-sulphonamide] | 79% | 72% | 90% | 104% | 63% | 98% | 93% | 93% |  |  |  |  |  |  | 
4 | O=S(=O)(NCC1CN(CCOc2cccc3ccccc23)C1)c1cc2ccccc2s1 [Compound 163, N-[[1-[2-(1-Naphthyloxy)ethyl]azetidin-3-yl]methyl]benzothiophene-2-sulphonamide] | 73% | 99% | 88% | 88% | 27% | 99% | 87% | 45% |  |  |  |  |  |  | 
5 | O=S(=O)(NC1CN(CCOc2cccc3c2OCCO3)C1)c1ccc(F)cc1 [Compound 90, N-[1-[2-(2,3-Dihydro-1,4-benzodioxan-8-yloxy)ethyl]azetidin-3-yl]-4-fluoro-benzenesulphonamide] |  |  |  |  | −25% |  |  |  | 5% | 49% | 82% | 92% | −7% | −16% | 18%
6 | O=S(=O)(NCC1CCN(CCOc2cccc3ccccc23)C1)c1ccc(F)c(F)c1 (stereo not drawn) [Compound 278, 3,4-Difluoro-N-[[1-[2-(1-naphthyloxy)ethyl]pyrrolidin-3-yl]methyl]benzenesulphonamide] | 31% | 91% | 84% | 102% | 37% | 94% | 85% | 91% |  |  |  |  |  |  | 
7 | Cn1ccc2cc(S(=O)(=O)NCC3CN(CCOc4cccc5c4OCCO5)C3)ccc21 [Compound 187, N-[[1-[2-(2,3-Dihydro-1,4-benzodioxin-5-yloxy)ethyl]azetidin-3-yl]methyl]-1-methyl-indole-5-sulphonamide] | 56% | 93% | 78% | 98% | 88% | 48% | 44% | 69% |  |  |  |  |  |  | 
8 | O=S(=O)(NC1CCN(CCCc2c[nH]c3ccc(Cl)cc23)C1)c1ccc2ccccc2c1 (stereo not drawn) [Compound 87, N-[1-[3-(5-Chloro-1H-indol-3-yl)propyl]pyrrolidin-3-yl]naphthalene-2-sulphonamide] | 63% | 78% | 105% | 71% | 18% | 86% | 91% | 64% |  |  |  |  |  |  | 
9 | O=S(=O)(NC1CCN(CCOc2cccc3[nH]ccc23)CC1)c1ccc2ccccc2c1 [Compound 61, N-[1-[2-(1H-Indol-4-yloxy)ethyl]-4-piperidine]naphthalene-2-sulphonamide] |  |  |  |  | 79% |  |  |  | 39% | 92% | 77% | 95% | 83% | 71% | 43%
10 | O=S(=O)(NC1CCN(CCCc2noc3cc(F)ccc23)C1)c1ccc2c(c1)OCO2 (stereo not drawn) [Compound 194, N-[1-[3-(6-Fluoro-1,2-benzoxazol-3-yl)propyl]pyrrolidin-3-yl]-1,3-benzo-dioxole-5-sulphonamide] | 19% | 29% | 63% | 82% | 96% | 48% | 53% | 1% |  |  |  |  |  |  | 
11 | Cc1cccc(S(=O)(=O)NC2CCN(CCOc3cccc4[nH]ccc34)CC2)c1 [Compound 56, N-[1-[2-(1H-Indol-4-yloxy)ethyl]-4-piperidine]-3-methylbenzene-sulphonamide] |  |  |  |  | 74% |  |  |  | 34% | 84% | 75% | 106% | 98% | 36% | 15%
12 | O=S(=O)(NC1CCN(CCCc2noc3cc(F)ccc23)CC1)c1ccc2cc(Cl)ccc2c1 [Compound 325, 6-Chloro-N-[1-[3-(6-fluoro-1,2-benzoxazol-3-yl)propyl]-4-piperidyl]naphthalene-2-sulphonamide] | 91% | 92% | 80% | 89% | 76% | 59% | 72% | 21% |  |  |  |  |  |  | 
13 | O=S(=O)(NCC1CN(CCOc2cccc3ccccc23)C1)c1cccc2ccccc12 [Compound 168, N-[[1-[2-(1-Naphthyloxy)ethyl]azetidin-3-yl]methyl]naphthalene-1-sulphonamide] | 64% | 96% | 79% | 92% | 31% | 94% | 93% | 25% |  |  |  |  |  |  | 
14 | Cc1c(S(=O)(=O)NCC2CCN(CCOc3cccc4ccccc34)C2)sc2ccc(F)cc12 (stereo not drawn) [Compound 271, 5-Fluoro-3-methyl-N-[[1-[2-(1-naphthyloxy)ethyl]pyrrolidin-3-yl]methyl]benzothiophene-2-sulphonamide] | 45% | 97% | 82% | 104% | −1% | 93% | 76% | 40% |  |  |  |  |  |  | 
15 | O=S(=O)(NCC1CN(CCOc2cccc3ccccc23)C1)c1cc2ccc(Cl)cc2s1 [Compound 164, 6-Chloro-N-[[1-[2-(1-naphthyloxy)ethyl]azetidin-3-yl]methyl]-benzothiophene-2-sulphonamide] | 78% | 102% | 83% | 92% | 13% | 98% | 94% | 34% |  |  |  |  |  |  | 
